Measured values reported in patent US8404677B2, “Kinase inhibitors” (Genosco, priority 2009, dated 2013).

How the values were obtained:
MALME-3M = experiment: cells; format: cell-based; settings: MALME-3M (Melanoma)
MOLT-4 = experiment: cells; format: cell-based; settings: MOLT-4 (Leukemia)
A498 = experiment: cells; format: cell-based; settings: A498 (Renal Cancer)
DU-145 = experiment: cells; format: cell-based; settings: DU-145 (Prostate Cancer)
CCRF-CEM = experiment: cells; format: cell-based; settings: CCRF-CEM (Leukemia)
UACC-62 = experiment: cells; format: cell-based; settings: UACC-62 (Melanoma)
HCC-2998 = experiment: cells; format: cell-based; settings: HCC-2998 (Colon Cancer)
PC-3 = experiment: cells; format: cell-based; settings: PC-3 (Prostate Cancer)
[1] = tested on: SN4741 cells overexpressing LRRK2 G2019S; experiment: Neuroprotection from LRRK2-mediated dopaminergic cell death (H2O2, crystal violet); format: cell-based, murine; settings: for Percent Cell Death: 100 μM hydrogen peroxide
Description: (§1) SN4741, a murine dopaminergic cell line were cultured in DMEM containing 10 FBS at 37° C., respectively. SN4741 cells (1.5×10^4/well) were seeded in 48 well plates 1 day before transient transfection with 1 μg of the pcDNA3.1 plasmids of either vector, LRRK wildtype cDNA, LRRK G2019S cDNA, by standard CaCl2 precipitation. Two days after transfection, cells were treated with 100 μM hydrogen peroxide for 1 day and cell viability was measured by crystal violet assay. For compound treatment, the test compounds were added at 0.05 μM, 0.5 μM and 5 μM and the cells were incubated for 1 hour prior to the addition of hydrogen peroxide.
(§2) SN4741 cells were transfected with plasmids containing the LRRK2 wild-type or G2019S and incubated them for 2 days followed by addition of 100 μM of hydrogen peroxide for 24 h to sensitize them to oxidative stress. Cell survival was assessed using the crystal violet.

[2] = tested on: SN4741 cells transfected with vector; experiment: as above; format: cell-based, murine; settings: 100 μM hydrogen peroxide
Description: as §1, §2

[3] = tested on: SN4741 cells overexpressing LRRK2 wild-type; experiment: as above; format: cell-based, murine; settings: for Percent Cell Death: LRRK2 WT, 100 μM hydrogen peroxide
Description: as §1, §2

SF-268 = experiment: cells; format: cell-based; settings: SF-268 (CNS Cancer)
CAKI-1 = experiment: cells; format: cell-based; settings: CAKI-1 (Renal Cancer)
UACC-257 = experiment: cells; format: cell-based; settings: UACC-257 (Melanoma)
EKVX = experiment: cells; format: cell-based; settings: EKVX (NSCLC)
OVCAR-4 = experiment: cells; format: cell-based; settings: OVCAR-4 (Ovarian Cancer)
MCF7 = experiment: cells; format: cell-based; settings: MCF7 (Breast Cancer)
M14 = experiment: cells; format: cell-based; settings: M14 (Melanoma)
SW-620 = experiment: cells; format: cell-based; settings: SW-620 (Colon Cancer)
SK-MEL-5 = experiment: cells; format: cell-based; settings: SK-MEL-5 (Melanoma)
NCI-H23 = experiment: cells; format: cell-based; settings: NCI-H23 (NSCLC)
MDA-MB-435 = experiment: cells; format: cell-based; settings: MDA-MB-435 (Melanoma)
[4] = Homo sapiens, read-out: LC50 (the source's name)

Molecule `O=c1[nH]ccc2nc(N3CCC(O)CC3)nc(Nc3cccc(C(F)(F)F)c3)c12` [Compound 6, 2-(4-hydroxypiperidin-1-yl)-4-(3-(trifluoromethyl)phenylamino)pyrido[4,3-d]pyrimidine-5(6H)-one] has a GI50 (MALME-3M; Homo sapiens) of 2.63 µM, an IC50 (MALME-3M; Homo sapiens) of 9.77 µM and a CC50 (MALME-3M; [4]) of 32.4 µM. The TGI (MALME-3M) was 7.94 µM, the GI50 (MOLT-4; Homo sapiens) was 2.24 µM and the IC50 (MOLT-4; Homo sapiens) was 3.63 µM. For the same molecule, the LC50 (MOLT-4; Homo sapiens) was 100 µM, the TGI (MOLT-4) was 7.76 µM and the TGI (A498) was 100 µM. For the same molecule, the GI50 (A498; Homo sapiens) was 2.51 µM, the IC50 (A498; Homo sapiens) was no less than 100 µM and the CC50 (A498; [4]) was 100 µM. For the same molecule, the TGI (DU-145) was 19.5 µM, the GI50 (DU-145; Homo sapiens) was 1.55 µM and the IC50 (DU-145; Homo sapiens) was 6.03 µM. It also gave a CC50 (DU-145; [4]) of 100 µM, a TGI (CCRF-CEM) of 100 µM and a GI50 (CCRF-CEM; Homo sapiens) of 2.09 µM. The IC50 (CCRF-CEM; Homo sapiens) was 4.07 µM, the LC50 (CCRF-CEM; Homo sapiens) was 100 µM and the GI50 (UACC-62; Homo sapiens) was 1.82 µM. For the same molecule, the IC50 (UACC-62; Homo sapiens) was 3.98 µM, the CC50 (UACC-62; [4]) was 27.5 µM and the TGI (UACC-62) was 6.92 µM. For the same molecule, the TGI (HCC-2998) was 38 µM, the GI50 (HCC-2998; Homo sapiens) was 11.2 µM and the IC50 (HCC-2998; Homo sapiens) was 25.1 µM. For the same molecule, the CC50 (HCC-2998; [4]) was 100 µM, the GI50 (PC-3; Homo sapiens) was 2.29 µM and the IC50 (PC-3; Homo sapiens) was 4.68 µM. The CC50 (PC-3; [4]) was 93.3 µM, the TGI (PC-3) was 12.9 µM and the “Percent Cell Death” value ([1]; 0.05 uM) was 53.5%. The “Percent Cell Death” value ([1]; 0.5 uM) was 56.9%, the “Percent Cell Death” value ([1]; 5 uM) was 45.8% and the “protective effects against LRRK2-associated cell death” value ([1]; at 0.05 uM and higher, vs vector, DMSO or H2O2 controls) was “increased protective effects”. The “Percent Cell Death” value ([2]; 0.05 uM) was 54.2%, the “Percent Cell Death” value ([2]; 0.5 uM) was 57.5% and the “Percent Cell Death” value ([2]; 5 uM) was 42.5%. For the same molecule, the “Percent Cell Death” value ([3]; 0.05 uM) was 62.2%, the “Percent Cell Death” value ([3]; 0.5 uM) was 62.2% and the “Percent Cell Death” value ([3]; 5 uM) was 49.7%. For the same molecule, the “protective effects against LRRK2-associated cell death” value ([3]; LRRK2 wild-type, at 0.05 uM and higher, vs vector, DMSO or H2O2 controls) was “increased protective effects”, the GI50 (SF-268; Homo sapiens) was 3.09 µM and the IC50 (SF-268; Homo sapiens) was 12.9 µM. For the same molecule, the CC50 (SF-268; [4]) was 100 µM, the TGI (SF-268) was 35.5 µM and the TGI (CAKI-1) was 6.31 µM. For the same molecule, the GI50 (CAKI-1; Homo sapiens) was 0.282 µM, the IC50 (CAKI-1; Homo sapiens) was 1.29 µM and the CC50 (CAKI-1; [4]) was 100 µM. For the same molecule, the GI50 (UACC-257; Homo sapiens) was 4.27 µM, the IC50 (UACC-257; Homo sapiens) was 8.71 µM and the CC50 (UACC-257; [4]) was 45.7 µM. For the same molecule, the TGI (UACC-257) was 12.9 µM, the TGI (EKVX) was 12 µM and the GI50 (EKVX; Homo sapiens) was 2.88 µM. The IC50 (EKVX; Homo sapiens) was 7.59 µM, the CC50 (EKVX; [4]) was 100 µM and the GI50 (OVCAR-4; Homo sapiens) was 1.74 µM. The IC50 (OVCAR-4; Homo sapiens) was 9.12 µM, the LC50 (OVCAR-4; Homo sapiens) was 100 µM and the TGI (OVCAR-4) was 36.3 µM. It also gave a GI50 (MCF7; Homo sapiens) of 2.82 µM, an IC50 (MCF7; Homo sapiens) of 4.07 µM and a CC50 (MCF7; [4]) of 100 µM. It also gave a TGI (MCF7) of 12.6 µM, a GI50 (M14; Homo sapiens) of 1.55 µM and an IC50 (M14; Homo sapiens) of 3.31 µM. It also gave a CC50 (M14; [4]) of 32.4 µM, a TGI (M14) of 8.32 µM and a GI50 (SW-620; Homo sapiens) of 1.91 µM. For the same molecule, the IC50 (SW-620; Homo sapiens) was 2.82 µM, the CC50 (SW-620; [4]) was 74.1 µM and the TGI (SW-620) was 12.9 µM. The GI50 (SK-MEL-5; Homo sapiens) was 1.23 µM, the IC50 (SK-MEL-5; Homo sapiens) was 2.14 µM and the CC50 (SK-MEL-5; [4]) was 5.13 µM. It also gave a TGI (SK-MEL-5) of 2.51 µM, a GI50 (NCI-H23; Homo sapiens) of 3.24 µM and an IC50 (NCI-H23; Homo sapiens) of 6.92 µM. The CC50 (NCI-H23; [4]) was 50.1 µM, the TGI (NCI-H23) was 13.8 µM and the GI50 (MDA-MB-435; Homo sapiens) was 1.29 µM. For the same molecule, the IC50 (MDA-MB-435; Homo sapiens) was 2.57 µM, the CC50 (MDA-MB-435; [4]) was 9.77 µM and the TGI (MDA-MB-435) was 3.55 µM.
